According to ChEMBL document CHEMBL1154489, “Isolation, structure and antibacterial activity of pleosporone from a pleosporalean ascomycete discovered by using antisense strategy” (Bioorg Med Chem, 2009):
Converted amounts (≈) assume the structure as drawn. The source made the active and inactive calls. The rule behind the calls is not given here.

How the values were obtained:
Staphylococcus aureus [1] = experiment: Ratio of IC50 for RNA synthesis to IC50 for DNA synthesis in Staphylococcus aureus; format: functional
Staphylococcus aureus [2] = experiment: Antibacterial activity against Staphylococcus aureus RN450 bearing RPSD antisense S1-782B plasmid at 1000 ug/mL after 18 hrs by rpsD sensitized two-plate differential sensitivity assay; format: functional; settings: RN450, 18 h, read-out: IZ
Staphylococcus aureus [3] = experiment: Antimicrobial activity against methicillin-sensitive Staphylococcus aureus ATCC 29213 after 20 hrs by twofold serial dilution method; format: functional; settings: ATCC 29213, 20 h
Staphylococcus aureus [4] = experiment: Antimicrobial activity against methicillin-sensitive Staphylococcus aureus MB2865 at 4 ug/mL after 20 hrs by twofold serial dilution method; format: functional
Staphylococcus aureus [5] = experiment: Inhibition of RNA synthesis in Staphylococcus aureus assessed as [3H]uracil incorporation by scintillation counting; format: functional, organism-based
Enterococcus faecalis = experiment: Antimicrobial activity against vancomycin-sensitive macrolide-resistant Enterococcus faecalis CL8516 after 20 hrs by twofold serial dilution method; format: functional
Staphylococcus aureus [6] = experiment: Inhibition of DNA synthesis in Staphylococcus aureus assessed as [3H]thymidine incorporation by scintillation counting; format: functional, organism-based
Staphylococcus aureus [7] = experiment: Antimicrobial activity against methicillin-sensitive Staphylococcus aureus ATCC 29213 at 16 ug/mL after 20 hrs by twofold serial dilution method; format: functional
Staphylococcus aureus [8] = experiment: Antibacterial activity against Staphylococcus aureus RN450 bearing RPSD antisense S1-782B plasmid after 18 hrs by rpsD sensitized two-plate differential sensitivity assay; format: functional, organism-based
Haemophilus influenzae = experiment: Antimicrobial activity against drug-sensitive Haemophilus influenzae MB4572 after 20 hrs by twofold serial dilution method; format: functional
Streptococcus pneumoniae [9] = experiment: Antimicrobial activity against drug-sensitive Streptococcus pneumoniae CL2883 in CAMHB medium containing 2.5% horse blood after 20 hrs by twofold serial dilution method; format: functional
Streptococcus pneumoniae [10] = experiment: Antimicrobial activity against drug-sensitive Streptococcus pneumoniae CL2883 in isosensitet medium at 2 ug/mL after 20 hrs by twofold serial dilution method; format: functional
Candida albicans = experiment: Antimicrobial activity against wild-type Candida albicans MY1055 after 20 hrs by twofold serial dilution method; format: functional; settings: MY1055, 20 h
Staphylococcus aureus [11] = experiment: Antibacterial activity against Staphylococcus aureus RN450 bearing RPSD antisense S1-782B plasmid assessed as faint zone of clearance at 31.25 ug/mL after 18 hrs by rpsD sensitized two-plate differential sensitivity assay; format: functional; settings: RN450, 18 h, read-out: IZ
Escherichia coli [12] = experiment: Antimicrobial activity against Escherichia coli MB5746 envA1, tolC mutant after 20 hrs by twofold serial dilution method; format: functional
Staphylococcus aureus [13] = experiment: Inhibition of protein synthesis in Staphylococcus aureus assessed as [3H]leucine incorporation by scintillation counting; format: functional, organism-based
Staphylococcus aureus [14] = experiment: Antibacterial activity against Staphylococcus aureus RN450 bearing RPSD antisense S1-782B plasmid assessed as minimum detection concentration after 18 hrs by rpsD sensitized two-plate differential sensitivity assay; format: functional
Escherichia coli [15] = experiment: Antimicrobial activity against wild-type Escherichia coli MB2884 after 20 hrs by twofold serial dilution method; format: functional
Bacillus subtilis = experiment: Antimicrobial activity against wild-type Bacillus subtilis MB964 after 20 hrs by twofold serial dilution method; format: functional
Staphylococcus aureus [16] = experiment: Ratio of IC50 for RNA synthesis to IC50 for protein synthesis in Staphylococcus aureus; format: functional
Staphylococcus aureus [17] = experiment: Antibacterial activity against wild-type Staphylococcus aureus RN450 assessed as faint zone of clearance at 31.25 ug/mL after 18 hrs by rpsD sensitized two-plate differential sensitivity assay; format: functional, organism-based
Staphylococcus aureus [18] = experiment: Antimicrobial activity against methicillin-sensitive Staphylococcus aureus MB2865 after 20 hrs by twofold serial dilution method in presence of 50% human serum; format: functional
HeLa = experiment: Cytotoxicity against human HeLa cells; format: functional, cell-based
Staphylococcus aureus [19] = experiment: Antimicrobial activity against methicillin-sensitive Staphylococcus aureus MB2865 after 20 hrs by twofold serial dilution method; format: functional
Staphylococcus aureus [20] = experiment: Antibacterial activity against wild-type Staphylococcus aureus RN450 at 1000 ug/mL after 18 hrs by rpsD sensitized two-plate differential sensitivity assay; format: functional; settings: RN450, 18 h, read-out: IZ
Streptococcus pneumoniae [21] = experiment: Antimicrobial activity against drug-sensitive Streptococcus pneumoniae CL2883 in isosensitet medium after 20 hrs by twofold serial dilution method; format: functional

Cc1cc(O)c2c(c1)C(=O)C1=C(C2=O)[C@@H](O)[C@@H](O)[C@@H](O)C1 [PLEOSPORONE] was tested, and the “Ratio IC50” value (Staphylococcus aureus [1]) was 6, the zone of inhibition at 1000 µg/mL (Staphylococcus aureus [2]) was 21.8 mm and the MIC (Staphylococcus aureus [3]) was over 64 µg/mL. The MIC80 (Staphylococcus aureus [3]) was 4 µg/mL (≈ 13.8 µM), the Activity (Staphylococcus aureus [4]) was 80% and the IC50 (Staphylococcus aureus [5]) was 1.3 µg/mL (≈ 4.48 µM). The MIC (Enterococcus faecalis) was 64 µg/mL (≈ 220 µM), the IC50 (Staphylococcus aureus [6]) was 8.4 µg/mL (≈ 28.9 µM) and the Activity (Staphylococcus aureus [7]) was 80%. The Activity (Staphylococcus aureus [8]) was “Dose-dependent effect”, the MIC (Haemophilus influenzae) was 1 µg/mL (≈ 3.45 µM) and the MIC (Streptococcus pneumoniae [9]) was 4 µg/mL (≈ 13.8 µM). For the same compound, the Activity (Streptococcus pneumoniae [10]) was 80%, the MIC (Candida albicans) was over 64 µg/mL and the zone of inhibition at 31.25 µg/mL (Staphylococcus aureus [11]) was 9 mm. It also gave an MIC (Escherichia coli [12]) of 16 µg/mL (≈ 55.1 µM), an IC50 (Staphylococcus aureus [13]) of 15.4 µg/mL (≈ 53.1 µM) and an Activity (Staphylococcus aureus [14]) of 31.25 µg/mL. The MIC (Escherichia coli [15]) was over 64 µg/mL, the MIC (Bacillus subtilis) was 8 µg/mL (≈ 27.6 µM) and the “Ratio IC50” value (Staphylococcus aureus [16]) was 6. The Activity (Staphylococcus aureus [17]) was “inactive”, the MIC (Staphylococcus aureus [18]) was over 64 µg/mL and the IC50 (HeLa) was 0.23 µg/mL (≈ 0.792 µM). The MIC (Staphylococcus aureus [19]) was 64 µg/mL (≈ 220 µM), the zone of inhibition at 1000 µg/mL (Staphylococcus aureus [20]) was 19.2 mm and the MIC (Streptococcus pneumoniae [21]) was 4 µg/mL (≈ 13.8 µM).
